{
  "source": "paper PMC4189262",
  "about": "(Pharmacognosy Magazine, 2014)",
  "key": {"human CYP1A2": {"test_system": "human CYP1A2", "conditions": "ref Shimada et al. [26]; cited from earlier work"}, "isolated rat hepatocytes [1]": {"test_system": "isolated rat hepatocytes", "test": "Lactate dehydrogenase", "type": "cell-based", "conditions": "60 μM, hepatocytes incubation, vs control"}, "isolated rat hepatocytes [2]": {"test_system": "isolated rat hepatocytes", "test": "Glutathione", "type": "cell-based", "conditions": "60 μM, hepatocytes incubation, vs control"}, "isolated rat hepatocytes [3]": {"test_system": "isolated rat hepatocytes", "test": "Malondialdehyde", "type": "cell-based", "conditions": "60 μM, hepatocytes incubation, vs control"}, "isolated rat hepatocytes [4]": {"test_system": "isolated rat hepatocytes", "test": "Trypan blue exclusion", "conditions": "60 μM, hepatocytes incubation, vs control"}, "[5]": {"test_system": "rat pheochromocytoma PC12 cells", "conditions": "limited supply of serum and hydrogen peroxide, ref Hong et al. [14]; cited from earlier work"}},
  "data": [
    {"smiles": "O=c1cc(-c2ccc(O)cc2)oc2cc(O)cc(O)c12", "note": "[apigenin]", "values": [
      {"measurement": "inhibitory activity on human CYP1A2", "setting": "human CYP1A2", "result": "inhibitory activity"}
    ]},
    {"smiles": "O=c1c(-c2ccc(O)cc2)coc2cc(O)cc(O)c12", "note": "[genistein]", "values": [
      {"measurement": "inhibitory activity on human CYP1A2", "setting": "human CYP1A2", "result": "inhibitory activity"}
    ]},
    {"smiles": "Cn1c(CCCC(=O)O)nc2cc(N(CCCl)CCCl)ccc21", "note": "[Bendamustine]", "values": [
      {"measurement": "increased LDH leakage", "setting": "isolated rat hepatocytes [1]", "result": 59, "unit": "%"},
      {"measurement": "depletion of cell GSH", "setting": "isolated rat hepatocytes [2]", "result": 76, "unit": "%"},
      {"measurement": "increased MDA level", "setting": "isolated rat hepatocytes [3]", "result": 194, "unit": "%"},
      {"measurement": "reduction of cell viability", "setting": "isolated rat hepatocytes [4]", "result": 33, "unit": "%"}
    ]},
    {"smiles": "O=c1cc(-c2ccccc2)oc2cc(O)cc(O)c12", "note": "[chrysin]", "values": [
      {"measurement": "inhibitory activity on human CYP1A2", "setting": "human CYP1A2", "result": "inhibitory activity"}
    ]},
    {"smiles": "O=c1c(O)c(-c2ccccc2)oc2cc(O)cc(O)c12", "note": "[galangin]", "values": [
      {"measurement": "inhibitory activity on human CYP1A2", "setting": "human CYP1A2", "result": "inhibitory activity"}
    ]},
    {"smiles": "O=c1c(O)c(-c2ccc(O)cc2)oc2cc(O)cc(O)c12", "note": "[kaempferol]", "values": [
      {"measurement": "protective effects on oxidative damage", "setting": "[5]", "result": "protective effects"},
      {"measurement": "inhibitory activity on human CYP1A2", "setting": "human CYP1A2", "result": "inhibitory activity"}
    ]},
    {"smiles": "O=P1(N(CCCl)CCCl)NCCCO1", "note": "(stereo not drawn) [Cyclophosphamide]", "values": [
      {"measurement": "increased LDH leakage", "setting": "isolated rat hepatocytes [1]", "result": 100, "unit": "%"},
      {"measurement": "depletion of cell GSH", "setting": "isolated rat hepatocytes [2]", "result": 72, "unit": "%"},
      {"measurement": "increased MDA level", "setting": "isolated rat hepatocytes [3]", "result": 184, "unit": "%"},
      {"measurement": "reduction of cell viability", "setting": "isolated rat hepatocytes [4]", "result": 43, "unit": "%"}
    ]},
    {"smiles": "COc1cc(O)c2c(=O)c(O)c(-c3ccc(O)cc3)oc2c1", "note": "[rhamnocitrin, kempferol 7-O-methyl ether]", "values": [
      {"measurement": "protective effects on oxidative damage", "setting": "[5]", "result": "protective effects"}
    ]}
  ]
}
